This note sets out measurements from patent publication US20230040182A1, “ARYL HETEROBICYCLIC COMPOUNDS AS Kv1.3 POTASSIUM SHAKER CHANNEL BLOCKERS” (priority 2019, published 2023).

Bounds are passed on as bounds.

T1 sequence (Q12809 whole entry): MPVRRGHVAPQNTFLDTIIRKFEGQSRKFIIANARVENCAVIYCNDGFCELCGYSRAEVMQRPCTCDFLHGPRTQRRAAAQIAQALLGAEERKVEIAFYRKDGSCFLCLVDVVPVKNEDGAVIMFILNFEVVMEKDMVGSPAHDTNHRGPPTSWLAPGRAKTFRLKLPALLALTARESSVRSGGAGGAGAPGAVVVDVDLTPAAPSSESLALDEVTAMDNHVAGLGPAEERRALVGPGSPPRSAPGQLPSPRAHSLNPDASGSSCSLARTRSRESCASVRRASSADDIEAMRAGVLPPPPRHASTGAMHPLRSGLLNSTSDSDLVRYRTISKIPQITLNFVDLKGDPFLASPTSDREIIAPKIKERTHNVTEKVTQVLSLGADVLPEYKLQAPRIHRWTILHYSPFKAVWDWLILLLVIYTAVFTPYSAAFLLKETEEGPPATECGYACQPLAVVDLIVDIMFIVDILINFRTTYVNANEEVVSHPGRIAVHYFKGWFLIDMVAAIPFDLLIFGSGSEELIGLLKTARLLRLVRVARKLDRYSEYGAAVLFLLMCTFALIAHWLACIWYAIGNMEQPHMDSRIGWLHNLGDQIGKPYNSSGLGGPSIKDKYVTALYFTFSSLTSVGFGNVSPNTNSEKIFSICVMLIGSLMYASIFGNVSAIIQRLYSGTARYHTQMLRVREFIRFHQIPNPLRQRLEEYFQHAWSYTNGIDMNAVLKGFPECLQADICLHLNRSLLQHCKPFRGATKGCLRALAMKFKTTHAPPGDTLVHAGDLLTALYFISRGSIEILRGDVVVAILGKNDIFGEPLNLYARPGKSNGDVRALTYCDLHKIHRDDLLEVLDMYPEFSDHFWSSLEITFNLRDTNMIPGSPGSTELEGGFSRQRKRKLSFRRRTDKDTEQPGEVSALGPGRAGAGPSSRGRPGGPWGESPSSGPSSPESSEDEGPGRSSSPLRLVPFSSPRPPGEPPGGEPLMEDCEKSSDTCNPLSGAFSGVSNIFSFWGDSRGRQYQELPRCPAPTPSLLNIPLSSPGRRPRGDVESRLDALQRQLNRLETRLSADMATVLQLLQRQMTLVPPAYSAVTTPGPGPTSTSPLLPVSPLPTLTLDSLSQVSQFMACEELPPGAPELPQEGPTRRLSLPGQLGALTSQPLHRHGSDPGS

One test addresses T1, hERG channel (Homo sapiens, UniProt Q12809).
T1 construct: expressed in transfected cells
As to the kind of experiment: hERG electrophysiology, automated whole-cell patch clamp (Patchliner). The class given is cell-based. The settings on record: CHO-K1 cells stably expressing hERG; whole-cell current, Hill fit. As for the experimental part:
Example 10. Evaluation of hERG Activities
This assay is used to evaluate the disclosed compounds' inhibition activities against the hERG channel.
CHO-K1 cells stably expressing hERG were grown in Ham's F-12 Medium with Glutamine containing 10% heat-inactivated FBS, 1% Penicillin/Streptomycin, Hygromycin (100 μg/ml) and G418 (100 μg/ml). Cells were grown in culture flasks at 37° C. in a 5% CO2-humidified incubator.
The cells were bathed in an extracellular solution containing 140 mM NaCl, 4 mM KCl, 2 mM CaCl2), 1 mM MgCl2, 5 mM Glucose, 10 mM HEPES; pH adjusted to 7.4 with NaOH; 295-305 mOsm. The internal solution contained 50 mM KCl, 10 mM NaCl, 60 mM KF, 20 mM EGTA, 10 mM HEPES; pH adjusted to 7.2 with KOH; 285 mOsm. All compounds were dissolved in DMSO at 30 mM. Compound stock solutions were freshly diluted with external solution to concentrations of 30 nM, 100 nM, 300 nM, 1 μM, 3 μM, 10 μM, 30 μM and 100 μM. The highest content of DMSO (0.3%) was present in 100 μM.
The voltage protocol (see Table B) was designed to simulate voltage changes during a cardiac action potential with a 300 ms depolarization to +20 mV (analogous to the plateau phase of the cardiac action potential), a repolarization for 300 ms to −50 mV (inducing a tail current) and a final step to the holding potential of −80 mV. The pulse frequency was 0.3 Hz. Control (compound-free) and compound pulse trains for each compound concentration applied contained 70 pulses.
(§1) Whole-cell current recordings and compound application were enabled by means of an automated patch clamp platform Patchliner (Nanion). EPC 10 patch clamp amplifier (HEKA) along with Patchmaster software (HEKA Elektronik Dr. Schulze GmbH) was used for data acquisition. Data were sampled at 10 kHz without filtering. Increasing compound concentrations were applied consecutively to the same cell without washouts in between.
(§2) AUC and PEAK values were obtained with Patchmaster (HEKA Elektronik Dr. Schulze GmbH). To determine IC50 the last single pulse in the pulse train corresponding to a given compound concentration was used. Obtained AUC and PEAK values in the presence of compound were normalized to control values in the absence of compound. Using Origin (OridinLab), IC50 was derived from data fit to Hill equation: Icompound/Icontrol=(100−A)/(1+([compound]/IC50)nH)+A, where IC50 is the concentration at which current inhibition is half-maximal, [compound] is the applied compound concentration, A is the fraction of current that is not blocked and nH is the Hill coefficient.
A general note: hERG is a cardiac potassium channel; its block is linked to QT prolongation.
Usually IC50 stands for the concentration that inhibits the measured activity by half. The low end stands for greater potency in that assay, the high end for weaker potency in that assay. In the case of `O=C1[C@@H]2C[C@H](c3c(O)ccc(Cl)c3Cl)CCN2C(=O)CN1CCO` (relative stereo) [Compound 7, (8R,9aS)-rel-8-(2,3-dichloro-6-hydroxyphenyl)-2-(2-hydroxyethyl)hexahydro-4H-pyrido[1,2-a]pyrazine-1,4(6H)-dione], the IC50 was above 30 µM.

As to `O=C1[C@H]2C[C@H](c3c(O)ccc(Cl)c3Cl)CCN2C(=O)CN1CCO` (relative stereo) [Compound 18, (8R,9aR)-rel-8-(2,3-dichloro-6-hydroxyphenyl)-2-(2-hydroxyethyl)-hexahydropyrido[1,2-a]pyrazine-1,4-dione], the IC50 is above 30 µM.

In a further test the target is T2, Kv1.3 potassium channel (Homo sapiens, UniProt P22001).
T2 construct: expressed in transfected cells
T2 sequence (P22001 whole entry): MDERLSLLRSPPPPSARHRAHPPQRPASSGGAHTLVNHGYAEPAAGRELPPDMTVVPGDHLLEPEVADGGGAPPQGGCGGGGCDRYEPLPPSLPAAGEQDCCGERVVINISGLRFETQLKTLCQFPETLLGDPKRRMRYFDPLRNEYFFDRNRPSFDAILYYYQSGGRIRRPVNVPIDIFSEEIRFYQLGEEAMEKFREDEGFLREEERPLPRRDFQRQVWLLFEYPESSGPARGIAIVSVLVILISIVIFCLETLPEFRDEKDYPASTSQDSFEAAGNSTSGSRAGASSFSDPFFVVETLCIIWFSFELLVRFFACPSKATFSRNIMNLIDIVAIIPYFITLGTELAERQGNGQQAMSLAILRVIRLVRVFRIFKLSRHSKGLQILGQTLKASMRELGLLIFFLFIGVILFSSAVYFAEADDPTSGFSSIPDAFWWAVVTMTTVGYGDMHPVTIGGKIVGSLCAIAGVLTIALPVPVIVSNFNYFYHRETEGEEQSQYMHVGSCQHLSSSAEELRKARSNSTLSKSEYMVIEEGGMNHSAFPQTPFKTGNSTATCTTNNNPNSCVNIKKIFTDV
Nature of the test: Kv1.3 potassium channel blocker activity, automated whole-cell patch clamp (Patchliner). The format is cell-based. To be noted: CHO-K1 cells stably expressing Kv1.3; whole-cell current, Hill fit. The protocol: Example 9. Evaluation of Kv1.3 Potassium Channel Blocker Activities
This assay is used to evaluate the disclosed compounds' activities as Kv1.3 potassium channel blockers.
CHO-K1 cells stably expressing Kv1.3 were grown in DMEM containing 10% heat-inactivated FBS, 1 mM Sodium Pyruvate, 2 mM L-Glutamine and G418 (500 μg/ml). Cells were grown in culture flasks at 37° C. in a […] incubator.
The cells were bathed in an extracellular solution containing 140 mM NaCl, 4 mM KCl, 2 mM CaCl2, 1 mM MgCl2, 5 mM Glucose, 10 mM HEPES; pH adjusted to 7.4 with NaOH; 295-305 mOsm. The internal solution contained 50 mM KCl, 10 mM NaCl, 60 mM KF, 20 mM EGTA, 10 mM HEPES; pH adjusted to 7.2 with KOH; 285 mOsm. All compounds were dissolved in DMSO at 30 mM. Compound stock solutions were freshly diluted with external solution to concentrations of 30 nM, 100 nM, 300 nM, 1 μM, 3 μM, 10 μM, 30 μM and 100 μM. The highest content of DMSO (0.3%) was present in 100 μM.
The currents were evoked by applying 100 ms depolarizing pulses from −90 mV (holding potential) to +40 mV were applied with 0.1 Hz frequency. Control (compound-free) and compound pulse trains for each compound concentration applied contained 20 pulses. 10-second breaks were used between pulse trains (see Table A below).
as §1, with “(Nanion Technologies GmbH).” for “(Nanion).”, “(HEKA Elektronik Dr. Schulze GmbH)” for “(HEKA)”, “filtering. Passive leak currents were subtracted online using a P/4 procedure (HEKA Elektronik Dr. Schulze GmbH).” for “filtering.”, “between. Total compound incubation time before the next pulse train was not longer than 10 seconds. Peak current inhibition was observed during compound equilibration.” for “between.”
as §2, with “AUC and peak values were” for “AUC and PEAK values were”, “To determine IC50, the last” for “To determine IC50 the last”, “AUC and peak values in” for “AUC and PEAK values in”, “where IC50 value is the” for “where IC50 is the”
`O=C1[C@@H]2C[C@H](c3c(O)ccc(Cl)c3Cl)CCN2C(=O)CN1CCO` (relative stereo) [Compound 7, (8R,9aS)-rel-8-(2,3-dichloro-6-hydroxyphenyl)-2-(2-hydroxyethyl)hexahydro-4H-pyrido[1,2-a]pyrazine-1,4(6H)-dione] registered an IC50 below 1 µM. On the same count and under the same terms, for `O=C1[C@H]2C[C@H](c3c(O)ccc(Cl)c3Cl)CCN2C(=O)CN1CCO` (relative stereo) [Compound 18, (8R,9aR)-rel-8-(2,3-dichloro-6-hydroxyphenyl)-2-(2-hydroxyethyl)-hexahydropyrido[1,2-a]pyrazine-1,4-dione] the value was below 1 µM; for `O=C1[C@@H]2C[C@H](c3c(O)ccc(Cl)c3Cl)CCN2C(=O)[C@H]2CC(O)CCN12` (stereo partly drawn) [Compound 40, (2R,6aR,12aS)-2-(2,3-dichloro-6-hydroxyphenyl)-8-hydroxyoctahydro-dipyrido[1,2-a:1′,2′-d]pyrazine-6,12(2H,6aH)-dione], below 1 µM; for `CC(C)[C@@H](O)[C@@H]1NC(=O)[C@@H]2C[C@H](c3c(O)ccc(Cl)c3Cl)CCN2C1=O` [Compound 42, (3S,8R,9aS)-8-(2,3-dichloro-6-hydroxyphenyl)-3-[(1R)-1-hydroxy-2-methylpropyl]-hexahydro-2H-pyrido[1,2-a]pyrazine-1,4-dione], below 1 µM. Same read-out and setting: for `O=C1[C@@H]2C[C@@H](O)CN2C(=O)[C@@H]2C[C@H](c3c(O)ccc(Cl)c3Cl)CCN12` [Compound 43, (2R,5aS,7R,11aS)-7-(2,3-dichloro-6-hydroxyphenyl)-2-hydroxyhexahydro-1H-pyrido[1,2-a]pyrrolo[1,2-d]pyrazine-5,11(5aH,11aH)-dione] the value was below 10 µM; for `O=C1N[C@@H](CO)C(=O)N2CC[C@H](c3c(O)ccc(Cl)c3Cl)C[C@H]12` [Compound 46, (3S,8S,9aR)-8-(2,3-dichloro-6-hydroxyphenyl)-3-(hydroxymethyl)hexahydro-4H-pyrido[1,2-a]pyrazine-1,4(6H)-dione], below 10 µM; for `CC1(C)NC(=O)C2CC(c3c(O)ccc(Cl)c3Cl)CCN2C1=O` (stereo not drawn) [Compound 47, 8-(2,3-dichloro-6-hydroxyphenyl)-3,3-dimethyl-octahydro-1H-pyrido[1,2-a]pyrazine-1,4-dione], below 10 µM. Still for that read-out and setting: for `CC(C)[C@H]1NC(=O)[C@H]2C[C@@H](c3c(O)ccc(Cl)c3Cl)CCN2C1=O` [Compound 48, (8S,9aR)-8-(2,3-dichloro-6-hydroxyphenyl)-3-(3R)-isopropyl-hexahydro-2H-pyrido[1,2-a]pyrazine-1,4-dione] the value was below 10 µM; for `CC[C@H]1NC(=O)[C@@H]2C[C@H](c3c(O)ccc(Cl)c3Cl)CCN2C1=O` [Compound 51, (8R,9aS)-8-(2,3-dichloro-6-hydroxyphenyl)-3-(3R)-ethyl-hexahydro-2H-pyrido[1,2-a]pyrazine-1,4-dione], below 30 µM. `CC(C)[C@H]1NC(=O)[C@@H]2C[C@H](c3c(O)ccc(Cl)c3Cl)CCN2C1=O` [Compound 54, (8R,9aS)-8-(2,3-dichloro-6-hydroxyphenyl)-3-(3R)-isopropyl-hexahydro-2H-pyrido[1,2-a]pyrazine-1,4-dione] came in with an IC50 below 1 µM. The same measure, in the same setting: for `O=C1NCC(=O)N2CC[C@H](c3c(O)ccc(Cl)c3Cl)C[C@H]12` [Compound 56, (8S,9aR)-8-(2,3-dichloro-6-hydroxyphenyl)hexahydro-4H-pyrido[1,2-a]pyrazine-1,4(6H)-dione] the value was below 10 µM; for `O=C1N[C@H](CO)C(=O)N2CC[C@H](c3c(O)ccc(Cl)c3Cl)C[C@H]12` [Compound 57, (3R,8S,9aR)-8-(2,3-dichloro-6-hydroxyphenyl)-3-(hydroxymethyl)hexahydro-4H-pyrido[1,2-a]pyrazine-1,4(6H)-dione], below 10 µM; for `O=C1[C@H]2C[C@@H](O)CN2C(=O)[C@H]2C[C@@H](c3c(O)ccc(Cl)c3Cl)CCN12` [Compound 59, (2R,5aR,7S,11aR)-7-(2,3-dichloro-6-hydroxyphenyl)-2-hydroxyhexahydro-1H-pyrido[1,2-a]pyrrolo[1,2-d]pyrazine-5,11(5aH,11aH)-dione], below 10 µM. Still for that read-out and setting: for `CC(C)[C@H](O)[C@H]1NC(=O)[C@H]2C[C@@H](c3c(O)ccc(Cl)c3Cl)CCN2C1=O` [Compound 61, (3R,8S,9aR)-8-(2,3-dichloro-6-hydroxyphenyl)-3-[(1S)-1-hydroxy-2-methylpropyl]-hexahydro-2H-pyrido[1,2-a]pyrazine-1,4-dione] the value was below 10 µM. For `C[C@H]1NC(=O)[C@H]2C[C@@H](c3c(O)ccc(Cl)c3Cl)CCN2C1=O` [Compound 62, (3R,8S,9aR)-8-(2,3-dichloro-6-hydroxyphenyl)-3-methyl-hexahydro-2H-pyrido[1,2-a]pyrazine-1,4-dione], the IC50 was below 10 µM.

In turn, `O=C1N[C@H](CCO)C(=O)N2CC[C@H](c3c(O)ccc(Cl)c3Cl)C[C@H]12` [Compound 63, (3R,8S,9aR)-8-(2,3-dichloro-6-hydroxyphenyl)-3-(2-hydroxyethyl)-hexahydro-2H-pyrido[1,2-a]pyrazine-1,4-dione] gave an IC50 below 30 µM. Same read-out and setting: for `O=C1N[C@H](CO)C(=O)N2CC[C@H](c3c(O)cc(Cl)c(Cl)c3Cl)C[C@H]12` [Compound 66, (8S,9aR)3-((3R)-hydroxymethyl)-8-(2,3,4-trichloro-6-hydroxyphenyl)-hexahydro-2H-pyrido[1,2-a]pyrazine-1,4-dione] the value was below 10 µM.

With `C[C@H](O)[C@H]1NC(=O)[C@H]2C[C@@H](c3c(O)ccc(Cl)c3Cl)CCN2C1=O` [Compound 67, (3R,8S,9aR)-8-(2,3-dichloro-6-hydroxyphenyl)-3-[(1S)-1-hydroxyethyl]-hexahydro-2H-pyrido[1,2-a]pyrazine-1,4-dione], the IC50 is below 10 µM. Same read-out and setting: for `O=C1N[C@H](CCO)C(=O)N2CC[C@@H](c3c(O)ccc(Cl)c3Cl)C[C@@H]12` [Compound 70, (3R,8R,9aS)-8-(2,3-dichloro-6-hydroxyphenyl)-3-(2-hydroxyethyl)-hexahydro-2H-pyrido[1,2-a]pyrazine-1,4-dione] the value was below 1 µM.
